Measured values taken from patent publication EP4711377A1, “STEROID COMPOUND, PREPARATION METHOD THEREFOR, AND USE THEREOF” (Shujing Biopharma Co., Ltd, priority 2023, dated 2024).
Read-outs that look alike come from different tables or passages of the source.

What was measured:
[1] = test system: mice with PTZ-induced convulsions; test: in vivo efficacy experiment in PTZ-induced epilepsy mouse model; design: species or system C57 mice; conditions: for Survival rate: 60 min before PTZ 120 mg/kg s.c., 30 min observation; for Number of clonic seizures / Number of tonic seizures / Clonic seizure latency period / Tonic seizure latency period: Mean ± SEM; for Clonic seizure latency period / Tonic seizure latency period: no seizure in 30 min recorded as 1800 s; for protective effects against acute epileptic seizures: conclusion in words
Experimental: Male C57 mice, purchased from SPF (Suzhou) Biotechnology Co., Ltd.
PTZ: a 120 mg/kg PTZ solution (administration volume: 10 mL/kg) was prepared with normal saline as the solvent.
Test compounds: solutions of the test compounds at 3/1/0.3 mg/kg (administration volume: 10 mL/kg) were prepared with Vehicle in section 1.4 as the solvent.
One hour before the test, the experimental animals were transferred into an operation room for acclimation.
The mice were randomly grouped, marked, and weighed, with 10 mice in each group. At 60 min before PTZ administration, the test compounds and Vehicle were separately orally administered.
The PTZ solution was administered subcutaneously before experimental observation, and this time point was recorded as the observation starting point.
Immediately after PTZ administration, the animals were placed in observation boxes and observed for 30 min. The following observations of the animals were recorded:
Clonic seizure: the animal has a generalized myoclonus that lasts for more than 3 s and is accompanied by falling.
Tonic seizure: the limbs are straightened at a 90° angle to the torso.
All metrology data were expressed as mean ± standard error of mean (Mean ± SEM), and the Prism 8.0 statistical software was used for data testing and analysis.

[2] = target: GABAa receptor (α1β2γ2) (Homo sapiens, UniProt P14867+P47870); test: in vitro GABAa receptor (α1β2γ2) cellular activity assay, manual whole-cell patch clamp, enhancement of currents induced by 1 µM GABA; format: cell-based; conditions: for Emax compared to Sage-217: conclusion in words from Table 1-2
Chain of GABAa receptor (α1β2γ2) (P14867 28-456): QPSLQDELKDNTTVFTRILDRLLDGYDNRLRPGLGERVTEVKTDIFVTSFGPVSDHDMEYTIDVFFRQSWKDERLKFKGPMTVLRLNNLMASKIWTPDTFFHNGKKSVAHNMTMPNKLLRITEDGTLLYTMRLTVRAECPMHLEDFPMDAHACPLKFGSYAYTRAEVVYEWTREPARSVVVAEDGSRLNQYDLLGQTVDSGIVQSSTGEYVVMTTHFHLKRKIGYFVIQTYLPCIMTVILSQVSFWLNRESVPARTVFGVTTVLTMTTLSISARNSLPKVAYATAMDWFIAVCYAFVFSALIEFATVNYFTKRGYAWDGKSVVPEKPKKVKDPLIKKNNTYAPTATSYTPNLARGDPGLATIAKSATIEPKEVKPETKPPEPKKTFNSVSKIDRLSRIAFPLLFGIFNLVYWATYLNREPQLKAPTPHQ
Chain of GABAa receptor (α1β2γ2) (P47870 25-512 limits assumed): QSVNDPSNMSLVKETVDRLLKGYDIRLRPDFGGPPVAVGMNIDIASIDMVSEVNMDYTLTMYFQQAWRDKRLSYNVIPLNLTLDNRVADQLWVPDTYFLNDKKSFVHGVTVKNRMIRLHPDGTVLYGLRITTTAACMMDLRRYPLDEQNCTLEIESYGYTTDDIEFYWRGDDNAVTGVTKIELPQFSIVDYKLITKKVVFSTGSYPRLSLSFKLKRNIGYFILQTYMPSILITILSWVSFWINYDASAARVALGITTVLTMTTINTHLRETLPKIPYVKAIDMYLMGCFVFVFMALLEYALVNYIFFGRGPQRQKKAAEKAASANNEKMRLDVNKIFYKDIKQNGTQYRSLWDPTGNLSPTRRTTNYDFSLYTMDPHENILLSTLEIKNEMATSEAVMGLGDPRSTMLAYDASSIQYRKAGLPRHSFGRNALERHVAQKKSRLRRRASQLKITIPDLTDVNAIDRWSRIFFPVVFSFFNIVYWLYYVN
Chain of GABAa receptor (α1β2γ2) (P18507 40-475 partner): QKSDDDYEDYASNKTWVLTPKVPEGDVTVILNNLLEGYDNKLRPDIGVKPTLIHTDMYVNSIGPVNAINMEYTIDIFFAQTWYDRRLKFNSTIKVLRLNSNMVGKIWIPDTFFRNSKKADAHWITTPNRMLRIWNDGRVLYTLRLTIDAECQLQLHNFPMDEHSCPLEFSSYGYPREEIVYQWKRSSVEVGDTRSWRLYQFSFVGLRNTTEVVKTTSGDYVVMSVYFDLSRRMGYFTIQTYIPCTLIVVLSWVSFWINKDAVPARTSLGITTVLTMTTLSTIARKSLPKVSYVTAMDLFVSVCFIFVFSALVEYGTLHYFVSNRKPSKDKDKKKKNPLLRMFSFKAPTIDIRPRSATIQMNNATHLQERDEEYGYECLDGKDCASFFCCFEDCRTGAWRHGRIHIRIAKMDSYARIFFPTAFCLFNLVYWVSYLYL
Experimental: The cells used in this experiment were derived from a CHO cell line that stably expressed normal GABAa receptor functions after transfection with human GABAa receptor α1, β2, and γ2 subunit cDNAs. The cell line was constructed by B'sys GmbH. The cells were cultured in a medium (purchased from Invitrogen) containing the following components: DMEM culture medium; 10% (v/v) inactivated fetal bovine serum; 5 µg/mL Puromycin; 250 µg/mL Hygromycin B; and 100 µg/mL Zeocin. The cells were grown in culture dishes containing the above medium and cultured in an incubator at 37 °C with 5% CO2. 12 h to 24 h before the electrophysiological experiment, the cells were transferred onto circular glass slides placed in culture dishes, and were grown under the same medium and culture conditions as above. The density of cells on each circular glass slide was required to meet the requirement that the overwhelming majority of cells were independent and individual.
In this experiment, a manual patch-clamp system HEKA EPC10 USB signal amplifier and digital conversion system (purchased from HEKA Electronics, Germany) were used for whole-cell current recording. The circular glass slides with surface-grown CHO GABAa cells (see the cell culture and requirement section above) were taken out from the culture dishes and then placed into an electrophysiological recording chamber under an inverted microscope. The recording chamber was continuously perfused with extracellular fluid (approximately 1-2 mL/min). In the experiment, the whole-cell current recording technique was employed to record chloride ion currents of GABAa channels. 1 µM GABA was used to activate chloride ion currents of GABAa channels on each cell as an initial control (the reason for using 1 µM GABA concentration was that: this concentration was an effective activation concentration for the GABAa ion channel agonist GABA on the cells used in this experiment, falling between 10% and 20%). Unless otherwise specified, the experiment was performed at conventional room temperature (about 25 °C), and only cells meeting the electrophysiological recording criteria were adopted. In the experiment, the cells were ruptured and sealed, and were clamped at -80 mV after entering a whole-cell state. 1 µM GABA acted on the cells through the drug perfusion system to induce chloride ion currents of GABAa channels; the action time was about 4 s, and the current magnitude was used as the initial control value. Subsequently, the cells were perfused and incubated with the test concentration compound for 3 min, and then a mixed solution of 1 µM GABA and the corresponding test concentration compound was applied to act on the cells to induce currents, so as to observe the enhancing effect of the test compound on the currents induced by 1 µM GABA. When the cell state stabilized, the test compound would be applied from low to high concentrations to act on the same cell. In the experiment, to avoid current reduction caused by desensitization of GABAa ion channels, the interval time for the test substance acting on the cells through the drug perfusion system was at least 180 s.
The experimental data were analyzed using data analysis software provided by HEKA Patchmaster, Microsoft Excel, and Graphpad Prism.

[3] = acute toxicity experiment and side effect observation in mice; format: in vivo, ICR mice; conditions: both sexes, ICR, mouse, in vivo; single oral intragastric administration at 2.5, 5, 10, 20 mg/kg; 14 days observation; read-out: maximum tolerated dose (MTD)
Experimental: (§1) This experiment aimed to evaluate the acute toxic manifestations of the test compounds following single oral intragastric administration in ICR mice, observe the recovery status of the ICR mice within 14 days post-administration, and determine the maximum tolerated dose of the test compounds.
(§2) 65 male and 65 female ICR mice were purchased from Shanghai Jihui Laboratory Animal Care Co., Ltd. After 4-5 days of acclimatization of the experimental animals, the formal experiment was carried out. The mice were housed at 5 mice/cage in a 12/12-hour light/dark cycle at a room temperature of 23±2 °C, with free access to food and water.
(§3) Based on the Vehicle in section 2.4, a certain weight of the test compound was weighed, 5% of the total volume of a DMSO liquid was first added, and the mixture was vortexed. After the drug was completely dissolved, 5% of the total volume of an HS-15 liquid was added, and the mixture was well mixed and vortexed. Finally, a 20% hydroxypropyl-β-cyclodextrin solution was added according to the remaining volume proportion, forming a 2 mg/mL clear and homogeneous solution. The solution was then proportionally diluted in a gradient to concentrations of 1 mg/mL, 0.5 mg/mL, and 0.25 mg/mL (the administration volume was 10 mL/kg).
(§4) • a. About 12-18 h before testing, animals were weighed and then grouped, and fasted overnight (water was accessible). • b. The next day, the mice were reweighed according to groups. Ten mice per group (5 males and 5 females/dose) were subjected to oral intragastric administration of the test compound or Vehicle. The day of administration was designated as Day 1. • c. […] Observation period for Day 2 to Day 14: 9:00 to 12:00.
(§5) • (1) The clinical symptoms and mortality in each group of ICR mice post-administration were recorded to determine the maximum tolerated dose. • (2) The symptom alleviation and recovery status in each group of ICR mice post-administration were recorded.

[4] = test system: ICR mice; test: as above; format: in vivo; conditions: for clinical symptoms / death: 4-8 h post-administration; for cage-side observations / main adverse reactions / tolerability: single oral administration, 2.5 to 20 mg/kg
Experimental: as §1, §2, §3, §4, §5

[5] = positive modulator enhancing GABAa receptor currents induced by 1 µM GABA, CHO cells, read-out: EC50
[6] = all dose groups (2.5/5/10/20 mg/kg)

Structure (SMILES)	Survival rate ([1]; dose 0.3 mg/kg p.o.) [%]	Survival rate ([1]; dose 1 mg/kg p.o.) [%]	Survival rate ([1]; dose 3 mg/kg p.o.) [%]	Number of clonic seizures ([1]; dose 3 mg/kg p.o.)	Number of tonic seizures ([1]; dose 3 mg/kg p.o.)	Clonic seizure latency period ([1]; dose 3 mg/kg p.o.) [s]	Tonic seizure latency period ([1]; dose 3 mg/kg p.o.) [s]	protective effects against acute epileptic seizures ([1]; extremely low dose (0.3 mpk))	protective effects against acute epileptic seizures ([1]; low dose (1 mpk))	Emax compared to Sage-217 [2]	EC50 [2, 5] [nM]	MTD at 14 days [3] [mg/kg]	clinical symptoms ([4]; 20 mpk group)	death [4, 6]	cage-side observations / main adverse reactions [4]	tolerability [4]	other results
C[C@@H]1C[C@H](C(=O)Cn2ncnn2)[C@@]2(C)CC[C@H]3[C@@H](CC[C@@H]4C[C@](C)(O)[C@@H](C)C[C@@H]43)[C@H]12 [Example 9, 1-((2S,3S,5R,8R,9R,10S,13S,14S,15R,17S)-3-Hydroxy-2,3,13,15-tetramethylhexadecahydro-1H-cyclopenta[a]phenanthren-17-yl)-2-(2H-tetrazol-2-yl)ethan-1-one]	10	100	100	0.2±0.1	0.0±0.0	1649.7 ± 105.0	1800.0 ± 0.0	partial protective effects	significant protective effects	lower Emax compared to Sage-217	40	20	gait instability	no death occurred	prostration and mild loss of righting reflex observed in some of the mice at high doses	all animals could tolerate it	clinical symptoms ([4]; all lower dose groups (below 20 mpk)): returned to normal
C[C@H]1C[C@H]2[C@H](CC[C@@H]3[C@@H]2CC[C@]2(C)[C@@H](C(=O)Cn4ncnn4)CC[C@@H]32)C[C@]1(C)O [Example 20, 1-((2S,3S,5R,8R,9R,10S,13S,14S,17S)-3-Hydroxy-2,3,13-trimethylhexadecahydro-1H-cyclopenta[a]phenanthren-17-yl)-2-(2H-tetrazol-2-yl)ethan-1-one]	10	100	–	0.0±0.0	0.0±0.0	1800.0 ± 0.0	1800.0 ± 0.0	partial protective effects	significant protective effects	lower Emax compared to Sage-217	110	20	–	no death occurred	ataxia that aggravated with the increase of dose	all animals could tolerate it	activation at 0.1 µM ([2]; single concentration 0.1 µM, relative enhancement amplitude of GABAa receptor currents induced by 1 µM GABA, CHO cells, read-out: Agonist ratio): 970%
C[C@@]1(O)CC[C@H]2[C@H](CC[C@@H]3[C@@H]2CC[C@]2(C)[C@@H](C(=O)Cn4cc(C#N)cn4)CC[C@@H]32)C1 [Sage-217, reference compound]	0	100	100	0.9±0.3	0.0±0.0	1012.3 ± 181.4	1800.0 ± 0.0	–	significant protective effects	–	–	10	prostration symptoms	–	ataxia that aggravated with the increase of dose, as well as severe loss of righting reflex observed at high doses	–	EC50 [2]: 120 nM; mortality ([4]; 20 mg/kg group, single oral intragastric administration): mortality was observed in both male and female mice; death ([4]; 20 mpk group, 5 males and 5 females): 1 male and 2 female mice died
